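Method: 48-hour compound exposure of cells in 96-well plates, five concentrations, linear interpolation of endpoints. Here, GI50 denotes the concentration required for 50% inhibition of growth. At the TGI there is no net growth.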
What was measured:
Experiment in all cases: growth of human tumour cells (NCI), 48 h
HS 578T breast = system: HS 578T breast
HT29 colon = system: HT29 colon
MDA-MB-435 = system: MDA-MB-435
KM12 colon = system: KM12 colon
UACC-62 melanoma = system: UACC-62 melanoma
DU-145 prostate = system: DU-145 prostate
CCRF-CEM leukemia = system: CCRF-CEM leukemia
SK-OV-3 ovarian = system: SK-OV-3 ovarian
HCT-15 colon = system: HCT-15 colon
MDA-MB-231 breast = system: MDA-MB-231 breast
NCI/ADR-RES ovarian = system: NCI/ADR-RES ovarian
LOX IMVI melanoma = system: LOX IMVI melanoma
SF-268 CNS = system: SF-268 CNS
RXF 393 renal = system: RXF 393 renal
HCC-2998 colon = system: HCC-2998 colon
MOLT-4 leukemia = system: MOLT-4 leukemia
SK-MEL-2 melanoma = system: SK-MEL-2 melanoma
OVCAR-4 ovarian = system: OVCAR-4 ovarian
OVCAR-3 ovarian = system: OVCAR-3 ovarian
SW-620 colon = system: SW-620 colon
HL-60(TB) leukemia = system: HL-60(TB) leukemia
UO-31 renal = system: UO-31 renal
SN12C renal = system: SN12C renal
786-0 renal = system: 786-0 renal
A498 renal = system: A498 renal
UACC-257 melanoma = system: UACC-257 melanoma
M14 melanoma = system: M14 melanoma
A549 NSCLC = system: A549 NSCLC
COLO 205 colon = system: COLO 205 colon
TK-10 renal = system: TK-10 renal
CAKI-1 renal = system: CAKI-1 renal
SF-295 CNS = system: SF-295 CNS
T-47D breast = system: T-47D breast
NCI-H522 lung = system: NCI-H522 lung
RPMI-8226 leukemia = system: RPMI-8226 leukemia
NCI-H23 lung = system: NCI-H23 lung
SR leukemia = system: SR leukemia
SK-MEL-5 melanoma = system: SK-MEL-5 melanoma
SNB-75 CNS = system: SNB-75 CNS
SF-539 CNS = system: SF-539 CNS
ACHN renal = system: ACHN renal
K-562 leukemia = system: K-562 leukemia
NCI-H226 lung = system: NCI-H226 lung
MCF7 breast = system: MCF7 breast
MALME-3M melanoma = system: MALME-3M melanoma
HOP-62 NSCLC = system: HOP-62 NSCLC
NCI-H460 lung = system: NCI-H460 lung
SK-MEL-28 melanoma = system: SK-MEL-28 melanoma
BT-549 breast = system: BT-549 breast
HCT-116 colon = system: HCT-116 colon
PC-3 prostate = system: PC-3 prostate
OVCAR-5 ovarian = system: OVCAR-5 ovarian
OVCAR-8 ovarian = system: OVCAR-8 ovarian
U251 CNS = system: U251 CNS
SNB-19 CNS = system: SNB-19 CNS
IGROV1 ovarian = system: IGROV1 ovarian

With `O=C(N/N=C/c1ccccc1O)C(=O)Nc1ccc(F)cc1` the GI50 (HS 578T breast) was 33.8 µM, the TGI (HS 578T breast) was > 100 µM and the GI50 (HT29 colon) was 8.86 µM. For the same compound, the TGI (HT29 colon) was > 100 µM, the GI50 (MDA-MB-435) was 8.4 µM and the TGI (MDA-MB-435) was > 100 µM. The GI50 (KM12 colon) was 6.97 µM, the TGI (KM12 colon) was > 100 µM and the GI50 (UACC-62 melanoma) was 3.32 µM. For the same compound, the TGI (UACC-62 melanoma) was 23.1 µM, the GI50 (DU-145 prostate) was 7.14 µM and the TGI (DU-145 prostate) was > 100 µM. It also gave a GI50 (CCRF-CEM leukemia) of 1350 nM, a TGI (CCRF-CEM leukemia) of 13.4 µM and a GI50 (SK-OV-3 ovarian) of 10.3 µM. For the same compound, the TGI (SK-OV-3 ovarian) was > 100 µM, the GI50 (HCT-15 colon) was 1860 nM and the TGI (HCT-15 colon) was > 100 µM. The GI50 (MDA-MB-231 breast) was 3.23 µM, the TGI (MDA-MB-231 breast) was > 100 µM and the GI50 (NCI/ADR-RES ovarian) was 3000 nM. The TGI (NCI/ADR-RES ovarian) was > 100 µM, the GI50 (LOX IMVI melanoma) was 4.28 µM and the TGI (LOX IMVI melanoma) was > 100 µM. For the same compound, the GI50 (SF-268 CNS) was 2770 nM, the TGI (SF-268 CNS) was > 100 µM and the GI50 (RXF 393 renal) was 9.93 µM. For the same compound, the TGI (RXF 393 renal) was > 100 µM, the GI50 (HCC-2998 colon) was 4.61 µM and the TGI (HCC-2998 colon) was > 100 µM. For the same compound, the GI50 (MOLT-4 leukemia) was 2870 nM, the TGI (MOLT-4 leukemia) was > 100 µM and the GI50 (SK-MEL-2 melanoma) was 22.9 µM. The TGI (SK-MEL-2 melanoma) was > 100 µM, the GI50 (OVCAR-4 ovarian) was 2530 nM and the TGI (OVCAR-4 ovarian) was > 100 µM. For the same compound, the GI50 (OVCAR-3 ovarian) was 3.18 µM, the TGI (OVCAR-3 ovarian) was > 100 µM and the GI50 (SW-620 colon) was 6.26 µM. The TGI (SW-620 colon) was > 100 µM, the GI50 (HL-60(TB) leukemia) was 2020 nM and the TGI (HL-60(TB) leukemia) was 8.75 µM. The GI50 (UO-31 renal) was 2180 nM, the TGI (UO-31 renal) was 54.1 µM and the GI50 (SN12C renal) was 6.46 µM. The TGI (SN12C renal) was > 100 µM, the GI50 (786-0 renal) was 6.96 µM and the TGI (786-0 renal) was > 100 µM. The GI50 (A498 renal) was 83.4 µM, the TGI (A498 renal) was > 100 µM and the GI50 (UACC-257 melanoma) was 2850 nM. For the same compound, the TGI (UACC-257 melanoma) was 15 µM, the GI50 (M14 melanoma) was 4.87 µM and the TGI (M14 melanoma) was 40.4 µM. The GI50 (A549 NSCLC) was 3.67 µM, the TGI (A549 NSCLC) was > 100 µM and the GI50 (COLO 205 colon) was 3.28 µM. The TGI (COLO 205 colon) was > 100 µM, the GI50 (TK-10 renal) was 6.12 µM and the TGI (TK-10 renal) was > 100 µM. For the same compound, the GI50 (CAKI-1 renal) was 2240 nM, the TGI (CAKI-1 renal) was 22 µM and the GI50 (SF-295 CNS) was 1810 nM. For the same compound, the TGI (SF-295 CNS) was 15.5 µM, the GI50 (T-47D breast) was 6.63 µM and the TGI (T-47D breast) was > 100 µM. For the same compound, the GI50 (NCI-H522 lung) was 3.01 µM, the TGI (NCI-H522 lung) was 52 µM and the GI50 (RPMI-8226 leukemia) was 7.9 µM. For the same compound, the TGI (RPMI-8226 leukemia) was > 100 µM, the GI50 (NCI-H23 lung) was 7.31 µM and the TGI (NCI-H23 lung) was > 100 µM. For the same compound, the GI50 (SR leukemia) was 2520 nM, the TGI (SR leukemia) was > 100 µM and the GI50 (SK-MEL-5 melanoma) was 5.62 µM. The TGI (SK-MEL-5 melanoma) was > 100 µM, the GI50 (SNB-75 CNS) was 14.2 µM and the TGI (SNB-75 CNS) was 69.4 µM. It also gave a GI50 (SF-539 CNS) of 2980 nM, a TGI (SF-539 CNS) of 18.5 µM and a GI50 (ACHN renal) of 3.02 µM. The TGI (ACHN renal) was > 100 µM, the GI50 (K-562 leukemia) was 5.02 µM and the TGI (K-562 leukemia) was > 100 µM. The GI50 (NCI-H226 lung) was 16 µM, the TGI (NCI-H226 lung) was > 100 µM and the GI50 (MCF7 breast) was 3.52 µM. The TGI (MCF7 breast) was > 100 µM, the GI50 (MALME-3M melanoma) was 10.7 µM and the TGI (MALME-3M melanoma) was 82.7 µM. For the same compound, the GI50 (HOP-62 NSCLC) was 10.7 µM, the TGI (HOP-62 NSCLC) was > 100 µM and the GI50 (NCI-H460 lung) was 2740 nM. The TGI (NCI-H460 lung) was > 100 µM, the GI50 (SK-MEL-28 melanoma) was 8.04 µM and the TGI (SK-MEL-28 melanoma) was > 100 µM. The GI50 (BT-549 breast) was 18.1 µM, the TGI (BT-549 breast) was > 100 µM and the GI50 (HCT-116 colon) was 3.19 µM. The TGI (HCT-116 colon) was > 100 µM, the GI50 (PC-3 prostate) was 4.21 µM and the TGI (PC-3 prostate) was > 100 µM. For the same compound, the GI50 (OVCAR-5 ovarian) was 6.69 µM, the TGI (OVCAR-5 ovarian) was > 100 µM and the GI50 (OVCAR-8 ovarian) was 4.3 µM. For the same compound, the TGI (OVCAR-8 ovarian) was > 100 µM, the GI50 (U251 CNS) was 2750 nM and the TGI (U251 CNS) was > 100 µM. For the same compound, the GI50 (SNB-19 CNS) was 4.91 µM, the TGI (SNB-19 CNS) was > 100 µM and the GI50 (IGROV1 ovarian) was 4.29 µM. For the same compound, the TGI (IGROV1 ovarian) was > 100 µM.

— PubChem BioAssay (NCI)
